We go through 23 compounds from patent US20080312255A1 (ASTRAZENECA AB, priority 2007, published 2008).

The structures appear in SMILES notation. Structures can show the parent of a compound that is named as a salt.

The assay deals with S. aureus GyrB ATPase (Staphylococcus aureus, UniProt P0A0K8). The experiment in a line: S. aureus GyrB ATPase inhibition (ammonium molybdate/malachite green phosphate detection). The format is biochemical. Particulars: compound concentration of 1 μM. As to the method: S. aureus GyrB ATPase Inhibition Activity: Compounds may be tested for inhibition of S. aureus GyrB ATPase activity using an ammonium molybdate/malachite green-based phosphate detection assay (Lanzetta, P. A., L. J. Alvarez, P. S. Reinach, and O. A. Candia, 1979, 100: 95-97). Assays can be performed in multiwell plates in 30 μl reactions containing: 50 mM Hepes buffer pH 7.5, 75 mM ammonium acetate, 8.0 mM magnesium chloride, 0.5 mM ethylenediaminetetraacetic acid, 5% glycerol, 1.0 mM 1,4-Dithio-DL-threitol, 200 nM bovine serum albumin, 1.0 μg/ml sheared salmon sperm DNA, 250 pM E. coli GyrA, 250 pM S. aureus GyrB, 250 μM ATP, and compound in dimethylsulfoxide. Reactions can be quenched with […] of ammonium molybdate/malachite green detection reagent containing 1.2 mM malachite green hydrochloride, 8.5 mM ammonium molybdate tetrahydrate, and 1 M hydrochloric acid. Plates can be read in an absorbance plate reader at 650 nm and percent inhibition values can be calculated using dimethylsulfoxide (2%)-containing reactions as 0% inhibition and EDTA-containing ([…]) reactions as 100% inhibition controls. An IC50 measurement of compound potency for each compound can be determined from reactions performed in the presence of 10 different compound concentrations.
Chain of S. aureus GyrB ATPase (P0AES4 whole entry): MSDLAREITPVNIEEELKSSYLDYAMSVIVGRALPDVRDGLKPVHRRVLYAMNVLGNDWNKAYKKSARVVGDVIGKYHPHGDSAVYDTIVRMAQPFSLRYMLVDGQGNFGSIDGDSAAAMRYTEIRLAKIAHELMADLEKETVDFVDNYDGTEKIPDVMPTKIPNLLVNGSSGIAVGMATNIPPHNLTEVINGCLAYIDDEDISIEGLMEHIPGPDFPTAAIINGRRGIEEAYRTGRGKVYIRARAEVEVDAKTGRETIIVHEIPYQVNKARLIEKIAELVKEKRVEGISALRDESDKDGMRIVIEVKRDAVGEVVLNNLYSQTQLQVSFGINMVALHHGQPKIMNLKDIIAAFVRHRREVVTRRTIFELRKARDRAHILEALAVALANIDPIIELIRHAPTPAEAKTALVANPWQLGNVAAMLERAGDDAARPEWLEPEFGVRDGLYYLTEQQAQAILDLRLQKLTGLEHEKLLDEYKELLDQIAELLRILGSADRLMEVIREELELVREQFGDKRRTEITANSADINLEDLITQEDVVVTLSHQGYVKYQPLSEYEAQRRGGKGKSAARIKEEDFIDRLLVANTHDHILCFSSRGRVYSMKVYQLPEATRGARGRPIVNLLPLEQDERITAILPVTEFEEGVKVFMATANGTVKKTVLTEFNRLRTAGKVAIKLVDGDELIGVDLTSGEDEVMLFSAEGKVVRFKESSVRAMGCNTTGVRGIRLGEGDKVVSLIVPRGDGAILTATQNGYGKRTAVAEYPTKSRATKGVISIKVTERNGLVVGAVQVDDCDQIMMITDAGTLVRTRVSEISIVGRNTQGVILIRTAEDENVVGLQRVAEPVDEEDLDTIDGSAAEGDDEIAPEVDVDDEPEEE
Chain of S. aureus GyrB ATPase (P0A0K8 whole entry): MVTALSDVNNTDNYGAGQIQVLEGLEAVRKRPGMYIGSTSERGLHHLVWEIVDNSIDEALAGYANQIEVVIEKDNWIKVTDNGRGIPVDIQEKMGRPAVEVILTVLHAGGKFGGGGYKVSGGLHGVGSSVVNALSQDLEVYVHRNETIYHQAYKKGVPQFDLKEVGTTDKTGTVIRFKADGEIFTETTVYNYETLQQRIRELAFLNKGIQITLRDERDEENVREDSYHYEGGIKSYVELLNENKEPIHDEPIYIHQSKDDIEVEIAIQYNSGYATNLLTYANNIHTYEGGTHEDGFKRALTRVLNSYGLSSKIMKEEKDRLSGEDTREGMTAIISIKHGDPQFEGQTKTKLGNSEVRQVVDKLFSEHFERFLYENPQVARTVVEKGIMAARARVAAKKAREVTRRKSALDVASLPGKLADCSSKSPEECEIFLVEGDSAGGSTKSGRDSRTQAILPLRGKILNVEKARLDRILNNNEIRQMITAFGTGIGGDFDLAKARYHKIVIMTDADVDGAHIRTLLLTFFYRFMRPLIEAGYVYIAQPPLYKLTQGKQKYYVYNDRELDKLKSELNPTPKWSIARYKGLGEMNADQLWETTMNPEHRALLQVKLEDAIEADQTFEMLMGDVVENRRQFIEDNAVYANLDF
Compounds of the invention were tested in an assay substantially similar to the assay described above for measuring the inhibition of S. aureus GyrB ATPase. Percent inhibition of S. aureus GyrB ATPase at a compound concentration of 1 μM (unless otherwise noted) is disclosed in the following table: […]
Regarding `CO[C@H]1CN(c2nc(-c3ncccn3)c(C(=O)O)s2)CC[C@H]1NC(=O)c1[nH]c(C)c(Cl)c1Cl` [Example 1, 2-((3S,4R)-4-{[(3,4-Dichloro-5-methyl-1H-pyrrol-2-yl)carbonyl]amino}-3-methoxypiperidin-1-yl)-4-pyrimidin-2-yl-1,3-thiazole-5-carboxylic acid], the inhibition at 1 µM is 99.2%. Then `CO[C@H]1CN(c2nc(-c3ccncn3)c(C(=O)O)s2)CC[C@H]1NC(=O)c1[nH]c(C)c(Cl)c1Cl` [Example 2, 2-((3S,4R)-4-{[(3,4-Dichloro-5-methyl-1H-pyrrol-2-yl)carbonyl]amino}-3-methoxypiperidin-1-yl)-4-pyrimidin-4-yl-1,3-thiazole-5-carboxylic acid], with 101%; and `CO[C@H]1CN(c2nc(-c3nccs3)c(C(=O)O)s2)CC[C@H]1NC(=O)c1[nH]c(C)c(Cl)c1Cl` [Example 3, 2′-((3S,4R)-4-{[(3,4-Dichloro-5-methyl-1H-pyrrol-2-yl)carbonyl]amino}-3-methoxypiperidin-1-yl)-2,4′-bi-1,3-thiazole-5′-carboxylic acid], with 98.6%; and `Cc1[nH]c(C(=O)N[C@@H]2CCN(c3nc(-c4ncccn4)c(C(=O)O)s3)C[C@@H]2F)c(Cl)c1Cl` [Example 4, 2-((3S,4R)-4-{[(3,4-Dichloro-5-methyl-1H-pyrrol-2-yl)carbonyl]amino}-3-fluoropiperidin-1-yl)-4-pyrimidin-2-yl-1,3-thiazole-5-carboxylic acid], with 97.7%. As for `Cc1[nH]c(C(=O)N[C@@H]2CCN(c3nc(-c4ccncn4)c(C(=O)O)s3)C[C@@H]2F)c(Cl)c1Cl` [Example 5, 2-((3S,4R)-4-{[(3,4-Dichloro-5-methyl-1H-pyrrol-2-yl)carbonyl]amino}-3-fluoropiperidin-1-yl)-4-pyrimidin-4-yl-1,3-thiazole-5-carboxylic acid], the inhibition at 1 µM turned out to be 99.4%.

For `Cc1[nH]c(C(=O)N[C@@H]2CCN(c3nc(-c4nccs4)c(C(=O)O)s3)C[C@@H]2F)c(Cl)c1Cl` [Example 6, 2′-((3S,4R)-4-{[(3,4-Dichloro-5-methyl-1H-pyrrol-2-yl)carbonyl]amino}-3-fluoropiperidin-1-yl)-2,4′-bi-1,3-thiazole-5′-carboxylic acid], the inhibition at 1 µM was 99.9%.

Turning to `CO[C@H]1CN(c2nc(-c3ccccn3)c(C(=O)O)s2)CC[C@H]1NC(=O)c1[nH]c(C)c(Cl)c1Cl` [Example 7, 2-((3S,4R)-4-{[(3,4-Dichloro-5-methyl-1H-pyrrol-2-yl)carbonyl]amino}-3-methoxypiperidin-1-yl)-4-pyridin-2-yl-1,3-thiazole-5-carboxylic acid], the inhibition at 1 µM came out at 97.1%. Then `Cc1[nH]c(C(=O)N[C@@H]2CCN(c3nc(-c4ccccn4)c(C(=O)O)s3)C[C@@H]2F)c(Cl)c1Cl` [Example 8, 2-((3S,4R)-4-{[(3,4-Dichloro-5-methyl-1H-pyrrol-2-yl)carbonyl]amino}-3-fluoropiperidin-1-yl)-4-pyridin-2-yl-1,3-thiazole-5-carboxylic acid], with 106%; and `CO[C@H]1CN(c2nc(-c3cc(N(C)C)nc(N(C)C)n3)c(C(=O)O)s2)CC[C@H]1NC(=O)c1[nH]c(C)c(Cl)c1Cl` [Example 9, 4-[2,6-Bis(dimethylamino)pyrimidin-4-yl]-2-((3S,4R)-4-{[(3,4-dichloro-5-methyl-1H-pyrrol-2-yl)carbonyl]amino}-3-methoxypiperidin-1-yl)-1,3-thiazole-5-carboxylic acid], with 102%; and `Cc1[nH]c(C(=O)N[C@@H]2CCN(c3nc(-c4cc(N(C)C)nc(N(C)C)n4)c(C(=O)O)s3)C[C@@H]2F)c(Cl)c1Cl` [Example 10, 4-[2,6-Bis(dimethylamino)pyrimidin-4-yl]-2-((3S,4R)-4-{[(3,4-dichloro-5-methyl-1H-pyrrol-2-yl)carbonyl]amino}-3-fluoropiperidin-1-yl)-1,3-thiazole-5-carboxylic acid], with 101%. Then `CO[C@H]1CN(c2nc(-c3cnccn3)c(C(=O)O)s2)CC[C@H]1NC(=O)c1[nH]c(C)c(Cl)c1Cl` [Example 12, 2-((3S,4R)-4-{[(3,4-Dichloro-5-methyl-1H-pyrrol-2-yl)carbonyl]amino}-3-methoxypiperidin-1-yl)-4-pyrazin-2-yl-1,3-thiazole-5-carboxylic acid], with 105%; and `CO[C@H]1CN(c2nc(-c3nc4ccccc4s3)c(C(=O)O)s2)CC[C@H]1NC(=O)c1[nH]c(C)c(Cl)c1Cl` [Example 13, 4-(1,3-Benzothiazol-2-yl)-2-((3S,4R)-4-{[(3,4-dichloro-5-methyl-1H-pyrrol-2-yl)carbonyl]amino}-3-methoxypiperidin-1-yl)-1,3-thiazole-5-carboxylic acid], with 101%; and `Cc1[nH]c(C(=O)N[C@@H]2CCN(c3nc(-c4cnccn4)c(C(=O)O)s3)C[C@@H]2F)c(Cl)c1Cl` [Example 14], with 98.3%. `Cc1[nH]c(C(=O)N[C@@H]2CCN(c3nc(-c4nc5ccccc5s4)c(C(=O)O)s3)C[C@@H]2F)c(Cl)c1Cl` [Example 15, 4-(1,3-Benzothiazol-2-yl)-2-((3S,4R)-4-{[(3,4-dichloro-5-methyl-1H-pyrrol-2-yl)carbonyl]amino}-3-fluoropiperidin-1-yl)-1,3-thiazole-5-carboxylic acid]: the inhibition at 1 µM was determined as 101%.

For `CO[C@H]1CN(c2nc(-c3nccn3COCC[Si](C)(C)C)c(C(=O)O)s2)CC[C@H]1NC(=O)c1[nH]c(C)c(Cl)c1Cl` [Example 16, 2-((3S,4R)-4-{[(3,4-Dichloro-5-methyl-1H-pyrrol-2-yl)carbonyl]amino}-3-methoxypiperidin-1-yl)-4-(1-{[2-(trimethylsilyl)ethoxy]methyl}-1H-imidazol-2-yl)-1,3-thiazole-5-carboxylic acid], the inhibition at 1 µM was 100%. Then `COCn1ccnc1-c1nc(N2CC[C@@H](NC(=O)c3[nH]c(C)c(Cl)c3Cl)[C@@H](OC)C2)sc1C(=O)O` [Example 17, 2-((3S,4R)-4-{[(3,4-Dichloro-5-methyl-1H-pyrrol-2-yl)carbonyl]amino}-3-methoxypiperidin-1-yl)-4-[1-(methoxymethyl)-1H-imidazol-2-yl]-1,3-thiazole-5-carboxylic acid], with 97.7%; and `CO[C@H]1CN(c2nc(-c3ncc[nH]3)c(C(=O)O)s2)CC[C@H]1NC(=O)c1[nH]c(C)c(Cl)c1Cl` [Example 18, 2-((3S,4R)-4-{[(3,4-Dichloro-5-methyl-1H-pyrrol-2-yl)carbonyl]amino}-3-methoxypiperidin-1-yl)-4-(1H-imidazol-2-yl)-1,3-thiazole-5-carboxylic acid], with 101%; and `COCn1ccnc1-c1nc(N2CC[C@@H](NC(=O)c3[nH]c(C)c(Cl)c3Cl)[C@@H](F)C2)sc1C(=O)O` [Example 19, 2-((3S,4R)-4-{[(3,4-Dichloro-5-methyl-1H-pyrrol-2-yl)carbonyl]amino}-3-fluoropiperidin-1-yl)-4-[1-(methoxymethyl)-1H-imidazol-2-yl]-1,3-thiazole-5-carboxylic acid], with 102%. Consider `Cc1[nH]c(C(=O)N[C@@H]2CCN(c3nc(-c4ncc[nH]4)c(C(=O)O)s3)C[C@@H]2F)c(Cl)c1Cl` [Example 20, 2-((3S,4R)-4-{[(3,4-Dichloro-5-methyl-1H-pyrrol-2-yl)carbonyl]amino}-3-fluoropiperidin-1-yl)-4-(1H-imidazol-2-yl)-1,3-thiazole-5-carboxylic acid], for which the inhibition at 1 µM came to 98.6%. Then `CO[C@H]1CN(c2nc(-c3nccn3C)c(C(=O)O)s2)CC[C@H]1NC(=O)c1[nH]c(C)c(Cl)c1Cl` [Example 21, 2-((3S,4R)-4-{[(3,4-Dichloro-5-methyl-1H-pyrrol-2-yl)carbonyl]amino}-3-methoxypiperidin-1-yl)-4-(1-methyl-1H-imidazol-2-yl)-1,3-thiazole-5-carboxylic acid], with 99.1%; and `CO[C@H]1CN(c2nc(-c3n(C)cc[n+]3C)c(C(=O)O)s2)CC[C@H]1NC(=O)c1[nH]c(C)c(Cl)c1Cl` [Example 22, 2-[5-Carboxy-2-((3S,4R)-4-{[(3,4-dichloro-5-methyl-1H-pyrrol-2-yl)carbonyl]amino}-3-methoxypiperidin-1-yl)-1,3-thiazol-4-yl]-1,3-dimethyl-1H-imidazol-3-ium trifluoroacetate], with 101%. Then `CO[C@H]1CN(c2nc(-c3ccn[nH]3)c(C(=O)O)s2)CC[C@H]1NC(=O)c1[nH]c(C)c(Cl)c1Cl` [Example 23, 2-((3S,4R)-4-{[(3,4-Dichloro-5-methyl-1H-pyrrol-2-yl)carbonyl]amino}-3-methoxypiperidin-1-yl)-4-(1H-pyrazol-5-yl)-1,3-thiazole-5-carboxylic acid], with 100%; and `Cc1[nH]c(C(=O)N[C@@H]2CCN(c3nc(-c4ccn[nH]4)c(C(=O)O)s3)C[C@@H]2F)c(Cl)c1Cl` [Example 24, 2-((3S,4R)-4-{[(3,4-Dichloro-5-methyl-1H-pyrrol-2-yl)carbonyl]amino}-3-fluoropiperidin-1-yl)-4-(1H-pyrazol-5-yl)-1,3-thiazole-5-carboxylic acid], with 65.9%.
